# From patent publication US10886008B2, “Methods and systems for determining the biological age of samples” (Spring Discovery, Inc., priority 2018, dated 2021)
# What was measured:
# mouse myoblast cells = test: In vitro cell-based drug screening of mouse myoblast cells with machine-learning biological age prediction; set-up: species or system C57BL/6J mice; settings: for Change relative to control: average predicted age of treatment vs vehicle control wells on the same plate, concentrations of Table 8; for Average predicted age of treatment (months): primary myoblasts, concentrations of Table 8: Oxytocin 30 nM, TGFbeta 10 ng/mL, Wnt3a 100 ng/ml, Klotho 0.5 μg/mL, ALK5 inhibitor II 0.5 μM, PP242 300 nM, stained 48 hours post-plating
# Procedure: The machine learning systems and methods for predicting biological age were applied toward accelerating drug screens designed to detect interventions that slow or reverse one or more phenotypes of aging. Such a drug screening approach was tested using proof-of-concept drug screens, including an in vitro drug screening experimental model. This machine learning-based drug screening approach for aging-related therapies is described below. The machine learning-based mouse myoblast cellular aging approach was used to test an in vitro screening model for detecting anti-aging molecules for myoblasts.
# The myoblast cell screening was run in parallel with the myoblast biological age prediction described in Example 3, and the same processes for primary cell acquisition, preparation, processing, and image acquisition steps were performed as described in Example 3.
# For myoblast screening, replicate 384-well plates were dedicated to testing compound treatments (Treatment Plates) and were seeded with primary myoblasts, replicating the same plate layout as the myoblast age prediction experiment described in Example 3.
# For the Treatment Plates, after the cells adhere to the plate (around 2 hours post-plating) the media was changed. For each set of 10 replicate wells from each primary myoblast line, 4 of the wells received media supplemented with vehicle control, 3 wells received media supplemented with one test compound, and 3 wells received media supplemented with another test compound. In this manner, each Treatment Plate was used to test two different compounds, and three Treatment Plates were used in total to test six different compounds.
# All Treatment Plates were fed 24 hours post-plating with myoblast growth media supplemented with drugs or their respective vehicle control.
# As mentioned, the plates are handled, processed, and stained in the same way as described in the myoblast biological age prediction described in Example 3. Briefly, these plates were stained for EdU, desmin, ER cytopainter, and counterstained with Hoechst.
# Next, the data were prepared using a similar process as that described in Example 3. This created a treatment dataset that was analyzed using a previously generated aging model, which was trained on the aging dataset that was generated as described in Example 3.
# Next, the data was analyzed using a similar deep convolutional neural network architecture and the machine learning analysis approach described in Example 1. First, the deep convolutional neural network architecture was trained using the aging dataset and the machine learning analysis approach described in Example 1. Performing this training yields a final set of weights to use with the neural network for the treatment analysis. Second, the effects of the treatments were analyzed by applying the generated neural network to the entirety of the treatment dataset. This is subsequently referred to as a “transference” of the aging model to the treatment data.
# Next, as described in Example 6, average age predictions for each mouse were produced by predicting the biological age classification for each tile and averaging all tiles' predictions together. This calculation was performed for all three folds of the data, and those average predictions were then averaged together again. This produced a single numerical biological age prediction for each mouse, which was compared to control.
# Next, as described in Example 6, p-values were calculated using the Kolmogorov-Smirnov test to assess the statistical difference of the distributions of age predictions for each compound versus control. Note that in this case, because there are multiple plates being tested, each with different test compounds, each compound is compared only to the control wells on its own plate, thereby resulting in different control values for each compound, as shown in Table 9.
# mouse skin tissue = test: In vivo tissue-based drug screening of mouse skin tissue with machine-learning biological age prediction; set-up: species or system C57BL/6J mice; settings: daily topical application for 61 days
# Procedure: The machine learning systems and methods for predicting biological age were applied toward accelerating drug screens designed to detect interventions that slow or reverse one or more phenotypes of aging. Such a drug screening approach was tested using proof-of-concept drug screens, including an in vivo drug screening experimental model. This machine learning-based drug screening approach for aging-related therapies is described below. The machine learning-based skin tissue aging modeling approach was used to test an in vivo screening system for detecting topical anti-aging interventions on mouse skin.
# Mouse skin tissue samples were acquired and prepared as follows. Skin samples were collected from 75 healthy C57BL/6J mice in five separate groups: 15 mice in a control group were 10 months old (“Control 1”), 15 mice in another control group were 14 months old (“Control 2”), 15 mice in a third control group were 18 months old (“Control 3”), and two independent treatment groups comprised 18-month-old mice (“Test Article 1” and “Test Article 2”). Each treatment group included 15 mice given a daily topical application for 61 days, as detailed below. All mouse ages are referenced from the start of the experiment.
# The mice were shaved as necessary on a weekly basis in order to enable daily topical application on the back of the mice. […]
compound,measurement,setting,value
CC[C@H](C)[C@@H]1NC(=O)[C@H](Cc2ccc(O)cc2)NC(=O)[C@@H](N)CSSC[C@@H](C(=O)N2CCC[C@H]2C(=O)N[C@@H](CC(C)C)C(=O)NCC(N)=O)NC(=O)[C@H](CC(N)=O)NC(=O)[C@H](CCC(N)=O)NC1=O [Oxytocin],Change relative to control,mouse myoblast cells,−0.92%
same,Average predicted age of treatment (months),mouse myoblast cells,67.66 months
Cc1cccc(-c2[nH]ncc2-c2ccc3ncccc3n2)n1 [ALK5 inhibitor II],Change relative to control,mouse myoblast cells,−14.13%
same,Average predicted age of treatment (months),mouse myoblast cells,56.22 months
"CC1=C(/C=C/C(C)=C/C=C/C(C)=C/C(=O)O)C(C)(C)CCC1 [Test Article 1, All Trans Retinoic Acid]",Average predicted age (months),"mouse skin tissue; 18-month-old mice, HES-stained skin biopsies, averaged over tiles, three folds and mice",15.9 months
same,Change relative to control group,mouse skin tissue; average predicted age vs control group (averaged across control groups 1-3),−7.28%
CC(C)n1nc(-c2cc3cc(O)ccc3[nH]2)c2c(N)ncnc21 [PP242],Change relative to control,mouse myoblast cells,−17.14%
same,Average predicted age of treatment (months),mouse myoblast cells,56.16 months
Wnt3a,Change relative to control,mouse myoblast cells,−5.04%
same,Average predicted age of treatment (months),mouse myoblast cells,64.11 months
